Data set [1] can be described thus: Cytotoxicity against mouse RAW264.7 cells assessed as reduction in cell viability measured after 24 hrs by MTT assay. Format: cell-based. A general note: Tetrazolium dyes change colour on reduction, which living cells bring about.
The subject of data set [2] is RAW264.7. In words: Inhibition of LPS induced NO production in mouse RAW264.7 cells measured after 24 hrs by Griess reagent based assay. In kind it is functional, cell-based. To be noted: RAW264.7, 24 h. On the technique in general: Nitrite, measured by Griess reagent, commonly stands in for NO production.

pIC50: −log10 of the molar value. Where only a bound is given, the exact number is not on record here.

On to `C[C@@H]1O[C@@H](OC[C@H]2O[C@@H](Oc3cc(O)c4c(=O)cc(-c5ccc(O)c(O)c5)oc4c3)[C@H](O)[C@@H](O)[C@@H]2O)[C@H](O)[C@H](O)[C@H]1O`, for which the CC50 (commonly the concentration giving 50% cytotoxicity) at 24 h in data set [1] is over 100 µM. Besides, the pIC50 – broadly, −log10 of the IC50, conventionally taken in molar units – in data set [2] is under 4.00.
As for `O=C(O)[C@H]1O[C@@H](Oc2cc(O)c3c(=O)cc(-c4ccc(O)cc4)oc3c2)[C@H](O)[C@@H](O)[C@@H]1O`, the cytotoxic concentration (CC50) at 24 h in data set [1] was over 100 µM. In addition, the negative-log IC50 (pIC50) in data set [2] is under 4.00.
With `C=C1C(=O)O[C@H]2[C@H]1[C@@H](OC(=O)/C(C)=C\C)CC(C)=C1C[C@@H]3O[C@]3(C)[C@@H]12`, the CC50 at 24 h in data set [1] amounted to 21.7 µM. In addition, the pIC50 in data set [2] is 6.70.
Take `O=C(O)[C@H]1O[C@@H](Oc2cc(O)c3c(=O)cc(-c4ccc(O)c(O)c4)oc3c2)[C@H](O)[C@@H](O)[C@@H]1O`: in data set [1], the CC50 at 24 h was over 100 µM. Also, in data set [2], the pIC50 was under 4.00.
With `CC(=O)/C=C/[C@]1(O)C(C)(C)C[C@H](O)C[C@@]1(C)O`, the CC50 at 24 h in data set [1] was over 100 µM. In data set [2], this compound gave a negative-log IC50 (pIC50) of 4.52.
Consider `C=C1C(=O)O[C@H]2[C@H]1[C@@H](OC(=O)C(C)CC)CC(C)=C1C[C@@H]3O[C@]3(C)[C@@H]12` (stereo partly drawn), for which the CC50 at 24 h in data set [1] came to 21.5 µM. The compound further had a pIC50 in data set [2] of 5.52.
Take `C=C1C(=O)O[C@@H]2[C@H]3C(C)=CC(=O)[C@H]3[C@@H](C)C[C@H](OC(=O)/C(C)=C\C)[C@@H]12`: in data set [1], the CC50 at 24 h amounted to 22.5 µM. The same compound gave a pIC50 in data set [2] of 5.74.
`CC1=CC[C@H](C(C)(C)O)CC1=O`: the 50% cytotoxic concentration (CC50) at 24 h in data set [1] came out at 98 µM. The compound also showed a pIC50 in data set [2] of 4.31.
Take `C=C[C@@](C)(O)C[C@H](O)/C=C(\C)CC(=O)C=C(C)C`: in data set [1], the CC50 at 24 h was over 100 µM. In data set [2], this compound gave a pIC50 of 4.32.
As for `COc1ccc(-c2cc(=O)c3c(O)cc(O[C@@H]4O[C@H](C(=O)O)[C@@H](O)[C@H](O)[C@H]4O)cc3o2)cc1`, in data set [1], the CC50 at 24 h is over 100 µM. This compound had a pIC50 in data set [2] of 4.03.
Turning to `C=C[C@](C)(CCC/C(C)=C/C(=O)C=C(C)C)O[C@@H]1O[C@H](CO)[C@@H](O)[C@H](O)[C@H]1O`, the CC50 at 24 h in data set [1] was over 100 µM. The compound also had a negative-log IC50 (pIC50) in data set [2] of under 4.00.
In the case of `C=C1C(=O)O[C@@H]2/C=C(\C)CC/C=C(\C)C[C@H](OC(=O)/C(C)=C\C)[C@@H]12`, in data set [1], the CC50 at 24 h was 27 µM. The compound further gave a pIC50 in data set [2] of 5.00.
On the same counts, the results for `CC1=CC[C@H]([C@](C)(O)C/C=C/C(C)(C)O)CC1=O` are over 100 µM and under 4.00.
On to `C=C[C@](C)(CC/C=C(\C)CC(=O)C=C(C)C)O[C@@H]1O[C@H](CO)[C@@H](O)[C@H](O)[C@H]1O`, for which, in data set [1], the CC50 at 24 h is over 100 µM. In data set [2], the pIC50 was under 4.00.
Regarding `C=C[C@](C)(CC/C=C(\C)CC(=O)CC(C)C)O[C@@H]1O[C@H](CO)[C@@H](O)[C@H](O)[C@H]1O`, the CC50 at 24 h in data set [1] is over 100 µM. In addition, the pIC50 in data set [2] was under 4.00.
`C=C[C@](C)(CCC/C(C)=C\C(=O)C=C(C)C)O[C@@H]1O[C@H](CO)[C@@H](O)[C@H](O)[C@H]1O`: the CC50 at 24 h in data set [1] was over 100 µM. Moreover, in data set [2], the pIC50 is 4.01.
On the same counts, the results for `C=C(C)C(O)CC[C@@](C)(O)[C@H]1CC=C(C)C(=O)C1` (stereo partly drawn) are over 100 µM and under 4.00.
As to `C=C1C(=O)O[C@@H]2[C@H]3C(C)=CC(=O)[C@@H]3[C@@H](C)C[C@H](OC(=O)/C(C)=C\C)[C@@H]12`, the CC50 at 24 h in data set [1] was over 100 µM. Also, in data set [2], the pIC50 is 4.57.
Consider `COc1ccc(-c2cc(=O)c3c(O)cc(O)cc3o2)cc1` [ACACETIN], for which the CC50 at 24 h in data set [1] stood at 60.9 µM. The compound further had a pIC50 in data set [2] of 5.23.
On the same counts, the results for `COc1ccc(-c2cc(=O)c3c(O)cc(O[C@@H]4O[C@H](CO[C@@H]5O[C@@H](C)[C@H](O)[C@@H](O)[C@H]5O)[C@@H](O)[C@H](O)[C@H]4O)cc3o2)cc1` [ACACIIN] are over 100 µM and under 4.00.
On the same counts, the results for `O=c1cc(-c2ccc(O)cc2)oc2cc(O)cc(O)c12` [APIGENIN] are 65.1 µM and 4.74.
On to `O=c1cc(-c2ccc(O)cc2)oc2cc(O[C@@H]3O[C@H](CO)[C@@H](O)[C@H](O)[C@H]3O)cc(O)c12` [APIGETRIN], for which the half-maximal cytotoxic concentration (CC50) at 24 h in data set [1] is over 100 µM. The compound further had a pIC50 in data set [2] of 4.27.
In data set [2], `COc1ccc(-c2cc(=O)c3c(O)cc(O)cc3o2)cc1O` [DIOSMETIN] gave a pIC50 of 4.46.
Consider `O=c1cc(-c2ccc(O)c(O)c2)oc2cc(O[C@@H]3O[C@H](CO)[C@@H](O)[C@H](O)[C@H]3O)cc(O)c12` [GALUTEOLIN], for which the CC50 at 24 h in data set [1] is over 100 µM. The same compound showed a pIC50 in data set [2] of 4.06.
On to `COc1ccc([C@@H]2CC(=O)c3c(O)cc(O)cc3O2)cc1O` [HESPERETIN], for which, in data set [1], the CC50 at 24 h was over 100 µM. In data set [2], this compound had a pIC50 of 4.51.
Take `CC1(C)C[C@H](O)C[C@@]2(C)OC(=O)C=C12` [LOLIOLIDE]: the CC50 at 24 h in data set [1] was over 100 µM. Further, the pIC50 in data set [2] was 4.25.
Regarding `COc1ccc(-c2cc(=O)c3c(O)cc(O[C@@H]4O[C@H](CO)[C@@H](O)[C@H](O)[C@H]4O)cc3o2)cc1` [TILIANINE], the CC50 at 24 h in data set [1] is over 100 µM. Besides, the pIC50 in data set [2] is 4.34.

The values above are taken from ChEMBL document CHEMBL4834408, “Sesquiterpenoids from Chrysanthemum indicum with Inhibitory Effects on NO Production” (J Nat Prod, 2021).
